Results from ChEMBL document CHEMBL1125342, “Condensation of muscimol or thiomuscimol with aminopyridazines yields GABA-A antagonists” (J Med Chem, 1992).

How the values were obtained:
[1] = target: GABA-A receptor; anion channel; format: functional, tissue-based, Bos taurus, Brain
[2] = target: GABA-A receptor; anion channel; format: organism-based, Bos taurus, Brain

SMILES | IC50 [1] [nM] | IC50 [2] [nM]
N=c1ccc(-c2ccsc2)nn1Cc1cc(O)no1 | – | 1600
O=C1OC=C2CCCNCC12 (stereo not drawn) | – | 56000
N=c1ccc(-c2ccccc2)nn1CCCC(=O)O | – | 1200
NCc1cc(O)ns1 | – | 19
N=c1ccc(-c2ccc3c(c2)OCO3)nn1Cc1cc(O)ns1 | 0.76 | 17
N=c1c2ccccc2c(-c2ccccc2)nn1Cc1cc(O)no1 | 190 | 120
N=c1c2ccccc2c(-c2ccccc2)nn1Cc1cc(O)ns1 | 25 | 160
N=c1ccc(-c2ccc3c(c2)OCO3)nn1CCCC(=O)O | – | 50
NCc1cc(=O)[nH]o1 [MUSCIMOL] | 135 | 2

Further compounds by falling IC50 [2], results first:

IC50 [1] [nM] | IC50 [2] [nM] | SMILES
– | 10600 | Cc1cc(-c2ccccc2)c(=N)n(CCCC(=O)O)n1
1000 | 6600 | Cc1cc(-c2ccccc2)c(=N)n(Cc2cc(O)ns2)n1
– | 2370 | N=c1ccc(-c2ccsc2)nn1CCCC(=O)O
– | 2300 | Cc1cc(-c2ccccc2)nn(CCCC(=O)O)c1=N
80 | 1200 | N=c1ccc(-c2ccc(Cl)cc2)nn1Cc1cc(O)no1
– | 1000 | Cc1cc(-c2ccccc2)nn(Cc2cc(O)no2)c1=N
– | 280 | N=c1ccc(-c2ccc(Cl)cc2)nn1CCCC(=O)O
29 | 150 | N=c1ccc(-c2ccc(Cl)cc2)nn1Cc1cc(O)ns1
6 | 75 | N=c1ccc(-c2ccc3c(c2)OCO3)nn1Cc1cc(O)no1
3 | 43 | C[C@]12CC(=O)C3C(CC[C@@H]4C[C@H](O)CC[C@]34C)C1CC(=N)N2 (stereo partly drawn)
